The NIST ThermoML archive (doi:10.1021/je800589e)

Assay: xn = mol fraction of the nth substance listed
Settings: Ring tensiometer

O [water] + CN1CCCC1=O
x2 = 0
Settings	surface tension liquid-gas [mN/m]
293.15 K	72.65
298.15 K	72.05
303.15 K	71.21
313.15 K	69.52
323.15 K	67.92

O [water] + CCN1CCCC1=O
x2 = 0
Settings	surface tension liquid-gas [mN/m]
293.15 K	72.65
298.15 K	72.05
303.15 K	71.21
313.15 K	69.52
323.15 K	67.92

O [water] + O=C1CCCN1
x2 = 0
Settings	surface tension liquid-gas [mN/m]
293.15 K	72.65
298.15 K	72.05
303.15 K	71.21
313.15 K	69.52
323.15 K	67.92

CN1CCCC1=O [N-methylpyrrolidone] + O
surface tension liquid-gas [mN/m]
Settings	293.15 K	298.15 K	303.15 K	313.15 K	323.15 K
x1 = 0.0002	63.96	61.5	59.25	57	55
x1 = 0.0004	58.14	56.58	55.68	53.77	52.41
x1 = 0.0006	55.21	54.22	53.41	52.05	50.87
x1 = 0.001	53.5	52.86	52.23	51.05	50.14
x1 = 0.005	52.4	51.68	50.87	49.69	48.78
x1 = 0.01	51.6	50.78	50	48.87	48.05
x1 = 0.03	50.2	49.41	48.53	47.17	45.56
x1 = 0.1	49	48.29	47.49	46.34	44.6
x1 = 0.2	48.05	47.49	46.61	45.5	43.7
x1 = 0.4	46.05	45.42	44.94	44	42.4
x1 = 0.5	45.26	44.62	44	43.12	41.81
x1 = 0.6	44.46	43.82	43.1	42.3	41.18
x1 = 0.7	43.66	43	42.38	41.5	40.46
x1 = 0.8	42.78	42.14	41.66	40.78	39.74
x1 = 0.9	41.98	41.34	40.94	40.14	39.27
x1 = 1	41.26	40.8	40.38	39.64	38.68
